Patent US20240400591A1 (Jacobio Pharmaceuticals Co., Ltd., priority 2021, published 2024)
Where two headings read alike, the source gives them in different places.

What was measured:
[1] = molecular target: T1, His-p53 Y220C (94-294) protein (Homo sapiens, UniProt P04637, Y220C); test: In vitro DNA binding assay (HTRF); format: biochemical; details: % activation normalized to 2 μM Ref-1a high control
T1 construct: His-p53 Y220C (94-294) protein

NUGC3 (P53 Y220C) = test: Cell viability assay (CellTiter-Glo, 6 days), NUGC3; format: cell-based
Procedure, shortened: (§1)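 Cells seeded overnight at 37 °C, then exposed to compounds in medium for 6 days. Viability read by CellTiter-Glo luminescence, normalized to DMSO cell wells (high) and medium-only wells (low); IC50 taken as concentration giving 50% viability from 4-parameter logistic fit.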

NUGC4 (P53 WT) = test: Cell viability assay (CellTiter-Glo, 6 days), NUGC4; format: cell-based
Procedure, shortened: as §1

[2] = tested on: NUGC-3_P53_Luc single clonal cell line (p53 Y220C); test: Reporter gene assay (p53 RE luciferase); format: cell-based
Procedure, shortened: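 NUGC-3 cells stably carrying a p53 RE-driven luc2P reporter, washed free of phenol red, exposed to compound for 6 h at 37 °C; luminescence read. Activity normalised between DMSO (low) and Ref-1a 10 μM (high) controls; EC50 from 4-parameter logistic fit or Excel as concentration giving 50% activity.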

[3] = Homo sapiens, NUGC-3, 144 h, cell viability, 6 days, CellTiter-Glo, read-out: NUGC3 (P53 Y220C) IC50
[4] = Homo sapiens, NUGC-4, 144 h, cell viability, 6 days, CellTiter-Glo, read-out: NUGC4 (P53 WT) IC50
[5] = Homo sapiens, NUGC-3, luciferase reporter, 6 hours, normalized to Ref-1a (10 μM) high control, read-out: p53(Y220C)_NUGC-3 EC50
[6] = cell viability, 6 days, CellTiter-Glo, read-out: NUGC3 (P53 Y220C) IC50
[7] = cell viability, 6 days, CellTiter-Glo, read-out: NUGC4 (P53 WT) IC50
[8] = luciferase reporter, 6 hours, normalized to Ref-1a (10 μM) high control, read-out: p53(Y220C)_NUGC-3 EC50

EC50 [1] [nM] | SMILES | IC50 (NUGC3 (P53 Y220C); Homo sapiens, NUGC-3, 144 h, read-out: NUGC3 (P53 Y220C) IC50 (μM)) [µM] | IC50 (NUGC4 (P53 WT); Homo sapiens, NUGC-4, 144 h, read-out: NUGC4 (P53 WT) IC50 (μM)) [µM] | EC50 ([2]; Homo sapiens, NUGC-3, 6 h, read-out: p53(Y220C)_NUGC-3 EC50 (μM)) [µM] | IC50 (NUGC3 (P53 Y220C); [3]) [µM] | IC50 (NUGC4 (P53 WT); [4]) [µM] | EC50 [2, 5] [µM] | EC50 ([2]; Homo sapiens, NUGC-3, 6 h, luciferase reporter, 6 hours, normalized to Ref-1a (10 μM) high control, read-out: p53(Y220C)_NUGC-3 EC50) [µM] | IC50 (NUGC3 (P53 Y220C); [6]) [µM] | IC50 (NUGC4 (P53 WT); [7]) [µM] | EC50 [2, 8] [µM]
41 | CN1CC[C@@H](Nc2cccc3c(CC(F)(F)F)c(C#CCNc4ccc(P(C)(C)=O)c5ncsc45)sc23)[C@@H](F)C1 [Example 220, (7-((3-(7-(((3S,4R)-3-fluoro-1-methylpiperidin-4-yl)amino)-3-(2,2,2-trifluoroethyl)benzo[b]thiophen-2-yl)prop-2-yn-1-yl)amino)benzo[d]thiazol-4-yl)dimethylphosphine oxide] |  |  |  | 0.25 | 8.11 | 0.15 |  |  |  | 
39 | COc1cc([S@@](C)(=N)=O)ccc1NCC#Cc1sc2c(N[C@@H]3CCN(C)C[C@@H]3F)cccc2c1CC(F)(F)F [Example 226, (S)-(4-((3-(7-(((3S,4R)-3-fluoro-1-methylpiperidin-4-yl)amino)-3-(2,2,2-trifluoroethyl)benzo[b]thiophen-2-yl)prop-2-yn-1-yl)amino)-3-methoxyphenyl)(imino)(methyl)-16-sulfanone] |  |  |  |  |  |  |  | 0.32 | 19.4 | 0.05
40 | COc1cc([S@](C)(=N)=O)ccc1NCC#Cc1sc2c(N[C@@H]3CCN(C)C[C@@H]3F)cccc2c1CC(F)(F)F [Example 227, (R)-(4-((3-(7-(((3S,4R)-3-fluoro-1-methylpiperidin-4-yl)amino)-3-(2,2,2-trifluoroethyl)benzo[b]thiophen-2-yl)prop-2-yn-1-yl)amino)-3-methoxyphenyl)(imino)(methyl)-16-sulfanone] |  |  |  |  |  |  |  | 0.28 | 17.6 | 0.04
48 | COc1cc(S(C)(=O)=O)ccc1NCC#Cc1cc2c(N[C@@H]3CCN(C)C[C@@H]3F)cccc2n1CC(F)(F)F [Ref-1a, N-((3S,4R)-3-fluoro-1-methylpiperidin-4-yl)-2-(3-((2-methoxy-4-(methylsulfonyl)phenyl)amino)prop-1-yn-1-yl)-1-(2,2,2-trifluoroethyl)-1H-indol-4-amine, reference compound] |  |  |  | 0.54 | 11 | 0.05 |  |  |  | 
96 | COc1cc(S(C)(=O)=O)ccc1NCC#Cc1cc2c(N[C@H]3CCN(C)C[C@H]3F)cccc2n1CC(F)(F)F [Ref-1b, N-((3R,4S)-3-fluoro-1-methylpiperidin-4-yl)-2-(3-((2-methoxy-4-(methylsulfonyl)phenyl)amino)prop-1-yn-1-yl)-1-(2,2,2-trifluoroethyl)-1H-indol-4-amine, reference compound] |  |  |  | 1.92 | 12.5 | 0.2 |  |  |  | 

SMILES | EC50 [1] [nM] | IC50 (NUGC3 (P53 Y220C); Homo sapiens, NUGC-3, 144 h, read-out: NUGC3 (P53 Y220C) IC50 (μM)) [µM] | IC50 (NUGC4 (P53 WT); Homo sapiens, NUGC-4, 144 h, read-out: NUGC4 (P53 WT) IC50 (μM)) [µM] | EC50 ([2]; Homo sapiens, NUGC-3, 6 h, read-out: p53(Y220C)_NUGC-3 EC50 (μM)) [µM] | IC50 (NUGC3 (P53 Y220C); [3]) [µM] | IC50 (NUGC4 (P53 WT); [4]) [µM] | EC50 [2, 5] [µM] | EC50 ([2]; Homo sapiens, NUGC-3, 6 h, luciferase reporter, 6 hours, normalized to Ref-1a (10 μM) high control, read-out: p53(Y220C)_NUGC-3 EC50) [µM] | IC50 (NUGC3 (P53 Y220C); [6]) [µM] | IC50 (NUGC4 (P53 WT); [7]) [µM] | EC50 [2, 8] [µM]
COCCNC(=O)c1cc(P(C)(C)=O)ccc1NCC#Cc1sc2c(N[C@@H]3CCN(C)C[C@@H]3Cl)cccc2c1CC(F)(F)F [Example 219, 2-((3-(7-(((3S,4R)-3-chloro-1-methylpiperidin-4-yl)amino)-3-(2,2,2-trifluoroethyl)benzo[b]thiophen-2-yl)prop-2-yn-1-yl)amino)-5-(dimethylphosphoryl)-N-(2-methoxyethyl)benzamide] | 45 | 0.36 | 19.5 | 0.09 |  |  |  |  |  |  | 
CN1CC[C@H](Nc2cccc3c(CC(F)(F)F)c(C#CCNc4ccc(P(C)(C)=O)cc4C(F)F)sc23)[C@H](F)C1 [Example 225, (3-(difluoromethyl)-4-((3-(7-(((3R,4S)-3-fluoro-1-methylpiperidin-4-yl)amino)-3-(2,2,2-trifluoroethyl)benzol[b]thiophen-2-yl)prop-2-yn-1-yl)amino)phenyl)dimethylphosphine oxide] | 36 |  |  |  | 0.44 | 13.6 |  | 0.17 |  |  | 
